Assays:
Type in all cases: functional, Homo sapiens
Details in all cases: Homo sapiens, read-out: Cell Viability; for viability at 1 µM: Concentration 1 uM; for viability at 10 µM: Concentration 10 uM
Colon cancer organoid [1] = assay: Targeting of F14 CAF-induced therapy resistance in O14 CRC organoid-stroma co-culture. Cell viability is reported with Gefitinib.
Colon cancer organoid [2] = assay: Targeting of F14 CAF-induced therapy resistance in O23 CRC organoid-stroma co-culture. Cell viability is reported with Gefitinib.
Colon cancer organoid [3] = assay: Targeting of F14 CAF-induced therapy resistance in O23 CRC organoid-stroma co-culture. Cell viability is reported with SN-38.
Colon cancer organoid [4] = assay: Targeting of F14 CAF-induced therapy resistance in O14 CRC organoid-stroma co-culture. Cell viability is reported without Gefitinib.
Colon cancer organoid [5] = assay: Targeting of F14 CAF-induced therapy resistance in O23 CRC organoid-stroma co-culture. Cell viability is reported without Gefitinib.

| SMILES | viability at 1 µM (Colon cancer organoid [1]) [%] | viability at 1 µM (Colon cancer organoid [2]) [%] | viability at 1 µM (Colon cancer organoid [3]) [%] | viability at 1 µM (Colon cancer organoid [4]) [%] | viability at 1 µM (Colon cancer organoid [5]) [%] | viability at 10 µM (Colon cancer organoid [1]) [%] | viability at 10 µM (Colon cancer organoid [2]) [%] | viability at 10 µM (Colon cancer organoid [3]) [%] | viability at 10 µM (Colon cancer organoid [4]) [%] | viability at 10 µM (Colon cancer organoid [5]) [%] |
| --- | --- | --- | --- | --- | --- | --- | --- | --- | --- | --- |
| CNCc1ccccc1-c1csc([C@H](C)Nc2nc(C)nc3cc(OC)c(OC)cc23)c1 [BAY-294] | 66.5 | 46.4 | 89 | 102 | 137 | – | – | – | – | – |
| CNC(=O)c1ccc(Nc2ncc(C(F)(F)F)c(NCc3nccnc3N(C)S(C)(=O)=O)n2)cc1 [DEFACTINIB] | – | – | – | – | – | 17.9 | 40.5 | 39.9 | 76.8 | 78.6 |
| Cn1nc(C(F)(F)F)cc1-c1cnc(N2CCc3cc(S(=O)(=O)Nc4c(F)cc(Cl)cc4F)cc(N4CCCC4=O)c32)nc1 [TP-020] | – | – | – | – | – | 61.7 | 65.7 | 92.4 | 95 | 133 |
| O=C(Nc1cccnn1)N1CCC(=Cc2cccc(Oc3ccc(C(F)(F)F)cn3)c2)CC1 | – | – | – | – | – | 37.7 | 54.6 | 105 | 94 | 114 |
| Cc1cc(C)cc(C(=O)NOCCCCCC(=O)NO)c1 | – | – | – | – | – | 31.1 | 220 | 130 | 28.3 | 193 |
| Nc1nc(NCc2ccccc2)nc(-c2ccccc2CO)n1 [Ogerin] | – | – | – | – | – | 26.8 | 71.3 | 106 | 123 | 222 |
| CCCCN(Cc1ccccc1)C(=O)c1ccc(S(=O)(=O)Nc2ccccc2)cc1 | – | – | – | – | – | 48.8 | 52.2 | 63.6 | 80.8 | 125 |
| CC1(C)C(N)=Nc2cc(OCCCCN3Cc4ccc(OCc5cn(CC(=O)N6CCC(CCN7CCCC7)CC6)nn5)cc4C3)c(OCC3CC3)cc21 | – | – | – | – | – | 45.4 | 44 | 78.3 | 107 | 86.3 |
| CCOCCn1cc(C(=O)Nc2ccc(-n3nc(-c4cccnc4)cc3C(F)(F)F)cn2)ccc1=O [BI 1935] | – | – | – | – | – | 40.1 | 70.8 | 64.4 | 82.6 | 98.5 |
| Nc1cnc(N2CCc3cc(S(=O)(=O)Nc4c(F)cc(Cl)cc4F)cc(N4CCCC4=O)c32)nc1 [TP-020n] | 71.3 | 45.8 | 64.8 | 104 | 115 | – | – | – | – | – |
| CN1C[C@H](Nc2cnn(C)c(=O)c2Br)C[C@H](c2ccccc2)C1 | – | – | – | – | – | 64.7 | 68.1 | 66.4 | 84.6 | 143 |
